From ChEMBL document CHEMBL4376865, “Discovery and Characterization of 1H-1,2,3-Triazole Derivatives as Novel Prostanoid EP4 Receptor Antagonists for Cancer Immunotherapy” (J Med Chem, 2020)

Legend:
[1] = biological target: CYP2C9 (Homo sapiens, UniProt P11712); assay: Inhibition of CYP2C9 in human liver microsomes at 20 uM using tolbutamide as substrate incubated for 60 mins by HPLC analysis relative to control; format: ADME; details: probe tolbutamide
[2] = Metabolic stability in CD1 mouse liver microsomes assessed as compound remaining at 10 uM incubated for 1 hr
[3] = in vivo; details: BALB/c, mouse, po, 5 mg/kg
Description: AUC (0 to infinity) in BALB/c mouse at 5 mg/kg, po measured upto 24 hrs by LC-MS/MS analysis

[4] = biological target: T1, Prostaglandin E2 receptor EP1 subtype (Homo sapiens, UniProt P34995); assay: Antagonist activity at human EP1 expressed in CHO cells coexpressing G16-alpha assessed as intracellular calcium flux preincubated for 15 mins followed by addition of PGE2 by calcium flux assay; format: functional, cell-based
T1 sequence (P34995 whole entry): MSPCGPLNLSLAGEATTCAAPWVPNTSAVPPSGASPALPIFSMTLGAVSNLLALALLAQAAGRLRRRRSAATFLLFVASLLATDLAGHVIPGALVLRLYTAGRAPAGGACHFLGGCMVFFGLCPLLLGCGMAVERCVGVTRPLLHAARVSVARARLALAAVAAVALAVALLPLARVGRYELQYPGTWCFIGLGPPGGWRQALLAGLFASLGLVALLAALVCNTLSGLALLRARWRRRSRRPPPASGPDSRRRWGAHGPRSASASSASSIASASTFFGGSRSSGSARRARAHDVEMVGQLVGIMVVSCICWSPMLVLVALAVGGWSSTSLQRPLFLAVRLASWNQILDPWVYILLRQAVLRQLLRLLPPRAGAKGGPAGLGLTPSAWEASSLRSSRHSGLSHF

[5] = biological target: Prostaglandin E2 receptor EP2 subtype (Homo sapiens, UniProt P43116)
Description: Antagonist activity at human EP2 expressed in CHO cells coexpressing G16-alpha assessed as intracellular calcium flux preincubated for 15 mins followed by addition of PGE2 by calcium flux assay

[6] = in vivo; details: BALB/c, mouse, po, 5 mg/kg; remark: listed apart in the source
Description: Oral bioavailability in BALB/c mouse at 5 mg/kg measured upto 24 hrs by LC-MS/MS analysis

[7] = in vitro; details: human, liver microsomes
[8] = Metabolic stability in human liver microsomes assessed as compound remaining at 10 uM incubated for 1 hr
[9] = biological target: CYP2D6 (Homo sapiens, UniProt P10635); assay: Inhibition of CYP2D6 in human liver microsomes at 20 uM using dextromethorphan as substrate incubated for 60 mins by HPLC analysis relative to control; format: ADME; details: probe dextromethorphan
[10] = in vitro; details: CD1, mouse, liver microsomes
[11] = biological target: T2, CYP2B6 (Homo sapiens, UniProt P20813); assay: Inhibition of CYP2B6 in human liver microsomes at 20 uM incubated for 60 mins by HPLC analysis relative to control; format: ADME
T2 sequence (P20813 whole entry): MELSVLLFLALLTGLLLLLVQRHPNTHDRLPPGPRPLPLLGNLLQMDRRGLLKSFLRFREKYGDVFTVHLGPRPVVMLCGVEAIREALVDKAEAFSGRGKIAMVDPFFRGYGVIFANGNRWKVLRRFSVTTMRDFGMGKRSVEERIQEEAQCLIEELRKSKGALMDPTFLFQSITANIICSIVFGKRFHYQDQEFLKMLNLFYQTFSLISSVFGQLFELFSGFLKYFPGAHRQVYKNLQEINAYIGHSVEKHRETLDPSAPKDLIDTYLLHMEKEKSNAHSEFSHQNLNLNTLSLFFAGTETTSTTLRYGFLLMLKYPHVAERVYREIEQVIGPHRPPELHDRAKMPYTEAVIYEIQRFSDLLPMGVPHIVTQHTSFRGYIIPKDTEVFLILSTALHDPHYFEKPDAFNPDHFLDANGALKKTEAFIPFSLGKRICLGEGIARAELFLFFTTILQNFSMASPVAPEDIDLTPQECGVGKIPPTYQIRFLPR

[12] = biological target: Prostaglandin E2 receptor EP4 subtype (Homo sapiens, UniProt P35408)
Description: Antagonist activity at human EP4 expressed in CHO cells coexpressing G16-alpha assessed as intracellular calcium flux preincubated for 15 mins followed by addition of PGE2 by calcium flux assay

[13] = biological target: T3, Prostaglandin E2 receptor EP3 subtype (Homo sapiens, UniProt P43115)
T3 sequence (P43115 whole entry): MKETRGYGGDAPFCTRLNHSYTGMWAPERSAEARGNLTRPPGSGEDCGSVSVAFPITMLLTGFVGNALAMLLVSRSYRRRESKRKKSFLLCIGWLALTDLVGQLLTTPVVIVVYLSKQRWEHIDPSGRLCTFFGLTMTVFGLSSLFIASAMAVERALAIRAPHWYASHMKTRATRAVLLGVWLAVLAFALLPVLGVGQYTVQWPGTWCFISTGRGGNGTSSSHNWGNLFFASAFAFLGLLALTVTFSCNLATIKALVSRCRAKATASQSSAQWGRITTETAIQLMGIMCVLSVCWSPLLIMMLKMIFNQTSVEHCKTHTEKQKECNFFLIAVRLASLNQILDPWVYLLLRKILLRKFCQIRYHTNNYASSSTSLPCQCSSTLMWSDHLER
Description: Antagonist activity at human EP3 expressed in CHO cells coexpressing G16-alpha assessed as intracellular calcium flux preincubated for 15 mins followed by addition of PGE2 by calcium flux assay

[14] = Half life in BALB/c mouse at 1 mg/kg, iv measured upto 24 hrs by LC-MS/MS analysis; details: in vivo
[15] = in vitro; details: human, liver microsomes; remark: listed apart in the source
[16] = biological target: Cytochrome P450 3A4 (Homo sapiens, UniProt P08684); assay: Inhibition of CYP3A4 in human liver microsomes at 20 uM using testosterone as substrate incubated for 60 mins by HPLC analysis; format: ADME; details: 1 h
[17] = Half life in BALB/c mouse at 5 mg/kg, po measured upto 24 hrs by LC-MS/MS analysis; details: in vivo
[18] = Clearance in BALB/c mouse at 1 mg/kg, iv measured upto 24 hrs by LC-MS/MS analysis; details: in vivo
[19] = in vivo; details: BALB/c, mouse, iv, 1 mg/kg
[20] = biological target: CYP2E1 (Homo sapiens, UniProt P05181); assay: Inhibition of CYP2E1 in human liver microsomes at 20 uM using chlorzoxazone as substrate incubated for 60 mins by HPLC analysis relative to control; format: ADME; details: probe chlorzoxazone
[21] = Volume of distribution at steady state in BALB/c mouse at 1 mg/kg, iv measured upto 24 hrs by LC-MS/MS analysis; details: in vivo
[22] = biological target: Prostaglandin E2 receptor EP4 subtype (Mus musculus, UniProt P32240); assay: Antagonist activity at mouse EP4 expressed in CHO cells coexpressing G16-alpha assessed as intracellular calcium flux preincubated for 15 mins followed by addition of PGE2 by calcium flux assay; format: functional, cell-based
[23] = in vitro; details: CD1, mouse, liver microsomes; remark: listed apart in the source
[24] = Apparent volume of distribution in BALB/c mouse at 1 mg/kg, iv measured upto 24 hrs by LC-MS/MS analysis; details: in vivo
[25] = in vivo; details: BALB/c, mouse, iv, 1 mg/kg; remark: listed apart in the source
[26] = in vivo; details: BALB/c, mouse, po, 5 mg/kg; remark: listed apart in the source
Description: Cmax in BALB/c mouse at 5 mg/kg, po measured upto 24 hrs by LC-MS/MS analysis

[27] = biological target: T4, CYP1A2 (Homo sapiens, UniProt P05177); assay: Inhibition of CYP1A2 in human liver microsomes at 20 uM using phenacetin as substrate incubated for 30 mins by HPLC analysis relative to control; format: ADME; details: probe phenacetin
T4 sequence (P05177 whole entry): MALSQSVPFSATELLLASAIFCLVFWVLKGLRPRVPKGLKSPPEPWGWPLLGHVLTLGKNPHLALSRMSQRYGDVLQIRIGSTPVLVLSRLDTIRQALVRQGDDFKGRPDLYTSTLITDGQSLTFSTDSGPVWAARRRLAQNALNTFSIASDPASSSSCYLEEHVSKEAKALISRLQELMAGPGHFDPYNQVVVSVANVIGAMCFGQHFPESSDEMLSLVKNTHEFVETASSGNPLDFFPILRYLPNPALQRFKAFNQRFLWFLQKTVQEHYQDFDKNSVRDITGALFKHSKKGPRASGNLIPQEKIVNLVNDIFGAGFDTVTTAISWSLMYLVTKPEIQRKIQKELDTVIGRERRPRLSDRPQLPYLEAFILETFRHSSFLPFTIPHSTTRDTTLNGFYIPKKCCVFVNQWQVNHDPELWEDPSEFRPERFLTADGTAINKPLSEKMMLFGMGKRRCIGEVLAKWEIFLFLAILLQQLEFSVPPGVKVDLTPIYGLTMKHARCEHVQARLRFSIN

Chain of Prostaglandin E2 receptor EP4 subtype (Mus musculus, UniProt P32240) (P32240 whole entry): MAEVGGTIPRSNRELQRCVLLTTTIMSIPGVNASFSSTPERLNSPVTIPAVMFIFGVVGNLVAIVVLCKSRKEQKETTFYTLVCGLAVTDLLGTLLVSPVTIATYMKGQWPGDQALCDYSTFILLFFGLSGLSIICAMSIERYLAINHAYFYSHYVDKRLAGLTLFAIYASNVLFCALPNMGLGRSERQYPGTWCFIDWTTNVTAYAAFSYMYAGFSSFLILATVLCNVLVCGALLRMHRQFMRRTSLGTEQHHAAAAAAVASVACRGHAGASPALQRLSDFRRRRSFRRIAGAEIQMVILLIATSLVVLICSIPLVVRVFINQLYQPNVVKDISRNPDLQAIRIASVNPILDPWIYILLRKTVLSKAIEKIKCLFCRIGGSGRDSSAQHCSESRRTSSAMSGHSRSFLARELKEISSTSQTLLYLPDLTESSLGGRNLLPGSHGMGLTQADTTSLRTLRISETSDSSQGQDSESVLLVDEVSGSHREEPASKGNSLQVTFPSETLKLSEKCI
Chain of Cytochrome P450 3A4 (P08684 whole entry): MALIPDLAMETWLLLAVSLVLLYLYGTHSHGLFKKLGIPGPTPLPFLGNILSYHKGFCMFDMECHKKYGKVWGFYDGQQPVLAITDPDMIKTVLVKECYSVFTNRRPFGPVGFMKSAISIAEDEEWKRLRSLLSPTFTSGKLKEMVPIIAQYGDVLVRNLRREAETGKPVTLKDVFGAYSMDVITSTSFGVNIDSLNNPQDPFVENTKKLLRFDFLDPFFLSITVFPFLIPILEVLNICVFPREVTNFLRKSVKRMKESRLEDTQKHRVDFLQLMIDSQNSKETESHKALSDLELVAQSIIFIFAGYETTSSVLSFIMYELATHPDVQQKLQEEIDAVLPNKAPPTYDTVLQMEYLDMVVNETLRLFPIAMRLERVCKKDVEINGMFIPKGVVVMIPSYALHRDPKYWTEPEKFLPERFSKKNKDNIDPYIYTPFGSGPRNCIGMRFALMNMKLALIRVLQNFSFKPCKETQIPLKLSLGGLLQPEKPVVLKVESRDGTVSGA
Chain of CYP2D6 (P10635 whole entry): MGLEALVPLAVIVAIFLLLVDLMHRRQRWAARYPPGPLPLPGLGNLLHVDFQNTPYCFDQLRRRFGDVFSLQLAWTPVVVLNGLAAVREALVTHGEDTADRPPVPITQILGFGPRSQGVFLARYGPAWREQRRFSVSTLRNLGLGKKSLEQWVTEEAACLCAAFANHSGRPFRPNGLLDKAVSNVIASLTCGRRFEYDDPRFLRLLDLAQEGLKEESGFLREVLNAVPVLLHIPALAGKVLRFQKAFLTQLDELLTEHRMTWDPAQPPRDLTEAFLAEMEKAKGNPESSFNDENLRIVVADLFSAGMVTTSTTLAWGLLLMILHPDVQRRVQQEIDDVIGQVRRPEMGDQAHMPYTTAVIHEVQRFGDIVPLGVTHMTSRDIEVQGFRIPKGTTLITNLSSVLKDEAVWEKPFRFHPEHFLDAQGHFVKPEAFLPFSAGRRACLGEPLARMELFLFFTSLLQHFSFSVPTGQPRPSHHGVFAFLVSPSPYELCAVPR
Chain of CYP2E1 (P05181 whole entry): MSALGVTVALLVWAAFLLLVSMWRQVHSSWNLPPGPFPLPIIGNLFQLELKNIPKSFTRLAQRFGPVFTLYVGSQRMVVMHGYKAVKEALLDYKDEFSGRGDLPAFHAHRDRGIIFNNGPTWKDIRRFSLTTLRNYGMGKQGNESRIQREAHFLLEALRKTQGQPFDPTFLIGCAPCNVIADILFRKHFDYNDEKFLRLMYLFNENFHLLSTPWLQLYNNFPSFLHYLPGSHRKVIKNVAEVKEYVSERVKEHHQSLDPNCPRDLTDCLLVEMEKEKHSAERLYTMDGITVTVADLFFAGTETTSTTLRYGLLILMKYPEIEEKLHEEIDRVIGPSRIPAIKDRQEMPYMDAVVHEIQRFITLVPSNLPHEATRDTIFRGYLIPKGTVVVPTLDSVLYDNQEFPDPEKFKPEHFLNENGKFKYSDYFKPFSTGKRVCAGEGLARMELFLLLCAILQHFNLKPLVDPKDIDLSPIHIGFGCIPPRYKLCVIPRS
Chain of Prostaglandin E2 receptor EP2 subtype (P43116 whole entry): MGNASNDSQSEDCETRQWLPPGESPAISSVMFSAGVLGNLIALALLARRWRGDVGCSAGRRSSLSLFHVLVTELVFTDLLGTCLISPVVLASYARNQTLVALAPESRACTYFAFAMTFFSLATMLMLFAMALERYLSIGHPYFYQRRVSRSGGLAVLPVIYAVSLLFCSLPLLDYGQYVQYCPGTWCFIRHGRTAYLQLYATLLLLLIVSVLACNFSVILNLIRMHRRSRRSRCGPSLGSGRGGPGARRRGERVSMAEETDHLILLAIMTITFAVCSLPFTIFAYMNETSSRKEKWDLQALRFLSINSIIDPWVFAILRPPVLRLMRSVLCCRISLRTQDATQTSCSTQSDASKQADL
Chain of CYP2C9 (P11712 whole entry): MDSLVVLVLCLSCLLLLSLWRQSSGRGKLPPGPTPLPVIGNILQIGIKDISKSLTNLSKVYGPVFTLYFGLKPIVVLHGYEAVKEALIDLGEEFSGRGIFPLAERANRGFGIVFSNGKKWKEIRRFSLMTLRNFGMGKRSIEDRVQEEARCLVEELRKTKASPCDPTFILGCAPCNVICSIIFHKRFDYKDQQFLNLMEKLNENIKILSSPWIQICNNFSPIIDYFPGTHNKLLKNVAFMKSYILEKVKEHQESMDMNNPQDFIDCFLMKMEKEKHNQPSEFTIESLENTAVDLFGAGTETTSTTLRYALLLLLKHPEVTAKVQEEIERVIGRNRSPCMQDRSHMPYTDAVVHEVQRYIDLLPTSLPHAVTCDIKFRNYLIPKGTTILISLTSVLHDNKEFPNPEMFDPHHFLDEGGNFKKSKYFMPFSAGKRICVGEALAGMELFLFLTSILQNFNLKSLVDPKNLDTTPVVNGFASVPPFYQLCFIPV
Chain of Prostaglandin E2 receptor EP4 subtype (Homo sapiens, UniProt P35408) (P35408 whole entry): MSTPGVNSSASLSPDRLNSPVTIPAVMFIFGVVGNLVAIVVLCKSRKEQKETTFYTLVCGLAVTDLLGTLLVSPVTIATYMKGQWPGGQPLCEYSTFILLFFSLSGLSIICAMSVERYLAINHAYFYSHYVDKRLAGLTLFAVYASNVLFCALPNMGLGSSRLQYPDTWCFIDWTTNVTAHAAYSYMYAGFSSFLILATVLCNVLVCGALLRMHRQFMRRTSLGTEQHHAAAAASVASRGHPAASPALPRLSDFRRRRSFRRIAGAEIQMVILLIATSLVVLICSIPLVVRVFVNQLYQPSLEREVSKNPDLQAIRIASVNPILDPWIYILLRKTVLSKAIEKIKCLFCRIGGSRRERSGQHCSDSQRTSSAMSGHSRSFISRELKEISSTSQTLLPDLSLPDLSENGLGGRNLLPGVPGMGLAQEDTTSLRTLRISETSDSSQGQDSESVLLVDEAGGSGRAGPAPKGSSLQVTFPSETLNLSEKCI

inhibition at 1 h, 20 µM [1]: 48%
remaining at 1 h, 10 µM [2]: 75.5%
AUC(0-inf) at 24 h [3]: 654 ng·h/mL
IC50 [4]: > 10000 nM
IC50 [5]: > 10000 nM
bioavailability at 24 h [6]: 40.9%
half-life at 1 h, 10 µM [7]: > 2.42 h
remaining at 1 h, 10 µM [8]: 106%
inhibition at 1 h, 20 µM [9]: 25%
microsomal CLint at 1 h, 10 µM [10]: < 9.6 µL/min/mg
inhibition at 1 h, 20 µM [11]: 28%
IC50 [12]: 12.9 nM
IC50 [13]: > 10000 nM
half-life at 24 h [14]: 3.3 h
microsomal CLint at 1 h, 10 µM [15]: < 9.6 µL/min/mg
inhibition (INH) [16]: Not Active
half-life at 24 h [17]: 4.6 h
clearance at 24 h [18]: 50 mL/min/kg
Cmax at 24 h [19]: 808 ng/mL
inhibition at 1 h, 20 µM [20]: 63%
Vd at 24 h [21]: 4 L/kg
IC50 [22]: 27.5 nM
half-life at 1 h, 10 µM [23]: > 2.42 h
Vd at 24 h [24]: 14.5 L/kg
AUC(0-inf) at 24 h [25]: 332 ng·h/mL
Cmax at 24 h [26]: 365 ng/mL
inhibition at 0.5 h, 20 µM [27]: 21%
Structure (SMILES): C[C@H](NC(=O)c1c(-c2ccsc2)nnn1Cc1ccc(C(F)(F)F)cc1)c1ccc(C(=O)O)cc1
